From ChEMBL document CHEMBL3727357, “Compositions and methods for inhibiting g protein signaling” (2010) come the findings set out here.

Active and inactive are the calls of the source. No cut-off for these calls is given here.

For assay [1], the target named is Guanine nucleotide-binding protein G(I)/G(S)/G(T) subunit beta-1/gamma-2 (Homo sapiens, UniProt P59768+P62873). Description: (§1) Inhibition of SIGKAFKILGYPDYD binding to biotinylated Gbeta1gamma2 (unknown origin) incubated for 1 hr by phage ELISA. The assay is classed as protein-complex assay. (In general: ELISA stands for enzyme-linked immunosorbent assay.)
Guanine nucleotide-binding protein G(I)/G(S)/G(T) subunit beta-1/gamma-2 (Homo sapiens, UniProt P59768+P62873), sequence (P59768 2-71 partner limits assumed): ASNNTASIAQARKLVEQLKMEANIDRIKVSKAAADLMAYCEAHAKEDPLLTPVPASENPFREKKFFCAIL
Guanine nucleotide-binding protein G(I)/G(S)/G(T) subunit beta-1/gamma-2 (Homo sapiens, UniProt P59768+P62873), sequence (P62873 2-340 limits assumed): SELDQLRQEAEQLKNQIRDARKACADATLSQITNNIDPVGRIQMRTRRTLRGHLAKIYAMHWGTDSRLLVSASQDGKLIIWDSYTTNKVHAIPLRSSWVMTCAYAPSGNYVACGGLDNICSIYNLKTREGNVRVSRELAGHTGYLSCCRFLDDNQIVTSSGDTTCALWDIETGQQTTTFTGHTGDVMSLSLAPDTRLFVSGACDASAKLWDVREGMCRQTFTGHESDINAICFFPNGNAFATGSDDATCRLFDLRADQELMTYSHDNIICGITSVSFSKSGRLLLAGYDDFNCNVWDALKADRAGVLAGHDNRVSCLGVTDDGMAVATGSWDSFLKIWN
Assay [2] addresses T1, Guanine nucleotide-binding protein G(I)/G(S)/G(T) subunit beta-1/gamma-2 (Homo sapiens, UniProt P62873+P59768). Nature of the assay: Inhibition of biotinylated Gbeta1gamma2 (unknown origin)-mediated PLCbeta3 activation incubated for 16 hrs. The assay is classed as protein-complex assay.
Target sequence in this assay (P59768 2-71 limits assumed): as the sequence (P59768 2-71 partner limits assumed) above
Target sequence in this assay (P62873 2-340 limits assumed): as the sequence (P62873 2-340 limits assumed) above
Assay [3] deals with HL-60. Nature of the assay: Binding affinity to Gbetagamma in differentiated human HL60 cells assessed as inhibition of fMLP-stimulated Rac1 activation at 10 uM preincubated for 10 mins followed by fMLP challenge for 90 secs by Western blot analysis. The assay is classed as cell-based. A general note: In western blotting, separated proteins are transferred to a membrane and probed.

The subject of assay [4] is HL-60. Nature of the assay: Antiinflammatory activity in differentiated human HL60 cells assessed as inhibition of fMLP-stimulated cell migration at 10 uM after 1 hr by Boyden chamber method. The assay is classed as functional, cell-based.
The species entered for assay [5] is Mus musculus. Description: Inhibition of Gbetagamma-GRK2 interaction in mouse cardiomyocytes assessed as increase in contractility. The assay is classed as cell-based.
The species entered for assay [6] is Mus musculus. Description: Inhibition of Gbetagamma-GRK2 interaction in mouse cardiomyocytes assessed as increase in isoproterenol-induced contractility. The assay is classed as cell-based.
The subject of a further assay is CHO. Description: Inhibition of human Gbetagamma-dependent kappa opioid receptor-mediated PLC activation expressed in CHO cells assessed as reduction of U50,488-mediated total inositol phosphate production at 10 uM after 30 mins by scintillation counting analysis in presence of [3H]inositol. The assay is classed as cell-based.
For assay [7], the target named is T1, Guanine nucleotide-binding protein G(I)/G(S)/G(T) subunit beta-1/gamma-2. The description is as §1. The assay is classed as protein-complex assay.
Target sequence in this assay (P59768 2-71 partner limits assumed): as the sequence (P59768 2-71 partner limits assumed) above
Target sequence in this assay (P62873 2-340 limits assumed): as the sequence (P62873 2-340 limits assumed) above
For assay [8] the target is unchanged. Nature of the assay: Inhibition of SIGKAFKILGYPDYD binding to biotinylated Gbeta1gamma2 (unknown origin) at 300 uM incubated for 1 hr by phage ELISA. The assay is classed as protein-complex assay.
Target sequence in this assay (P59768 2-71 partner limits assumed): as the sequence (P59768 2-71 partner limits assumed) above
Target sequence in this assay (P62873 2-340 limits assumed): as the sequence (P62873 2-340 limits assumed) above
In assay [9] the target is Mu-type opioid receptor (Homo sapiens) (UniProt P35372). Nature of the assay: Inhibition of human Gbetagamma-dependent mu opioid receptor-mediated PLC activation expressed in CHO cells assessed as reduction of DAMGO-mediated total inositol phosphate production at 10 uM after 30 mins by scintillation counting analysis in presence of [3H]inositol. The assay is classed as functional, cell-based.
Mu-type opioid receptor (Homo sapiens), sequence (P35372 whole entry): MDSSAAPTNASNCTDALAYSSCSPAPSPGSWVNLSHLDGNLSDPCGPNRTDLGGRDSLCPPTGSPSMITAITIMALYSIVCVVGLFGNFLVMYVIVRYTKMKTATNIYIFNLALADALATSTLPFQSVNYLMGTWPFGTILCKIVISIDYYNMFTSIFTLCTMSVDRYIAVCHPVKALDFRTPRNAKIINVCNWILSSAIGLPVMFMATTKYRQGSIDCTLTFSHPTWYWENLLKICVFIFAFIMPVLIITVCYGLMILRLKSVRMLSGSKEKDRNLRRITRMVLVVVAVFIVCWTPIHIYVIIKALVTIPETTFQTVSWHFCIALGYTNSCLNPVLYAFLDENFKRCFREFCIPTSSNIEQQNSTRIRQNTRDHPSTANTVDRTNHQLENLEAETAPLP

The target is the same in assay [10]. Nature of the assay: Inhibition of human Gbetagamma-dependent mu opioid receptor-mediated PLC activation expressed in CHO cells assessed as reduction of morphine-mediated total inositol phosphate production at 10 uM after 30 mins by scintillation counting analysis in presence of [3H]inositol. The assay is classed as functional, cell-based.
Assay [11] concerns Mus musculus. Nature of the assay: Antiinflammatory activity in Swiss-Webster mouse assessed as inhibition of carrageenan-induced paw edema at 2.5 mg/kg, ip administered 1 hr followed by carrageenan challenge measured 3 times every 2 hrs. The assay is classed as functional, organism-based. On the technique in general: In the carrageenan paw model, swelling and tenderness develop within hours.

Assay [12] deals with Mus musculus. Nature of the assay: Antiinflammatory activity in Swiss-Webster mouse carrageenan-induced paw edema model assessed as inhibition of neutrophils recruitment in edematous fluid at 2.5 mg/kg, ip administered 1 hr followed by carrageenan challenge. The assay is classed as functional, organism-based.
The test system of assay [13] is Mus musculus. Description: Antiinflammatory activity in Swiss-Webster mouse carrageenan-induced paw edema model assessed as reduction of paw exudate volume at 2.5 mg/kg, ip administered 1 hr followed by carrageenan challenge. The assay is classed as functional, organism-based.
Assay [14] has as its target T1, Guanine nucleotide-binding protein G(I)/G(S)/G(T) subunit beta-1/gamma-2. Description: Inhibition of biotinylated Gbeta1gamma2 (unknown origin) binding to PLCbeta2 at 1 uM incubated for 16 hrs. The assay is classed as protein-complex assay.
Target sequence in this assay (P59768 2-71 partner limits assumed): as the sequence (P59768 2-71 partner limits assumed) above
Target sequence in this assay (P62873 2-340 limits assumed): as the sequence (P62873 2-340 limits assumed) above
For assay [15] the target is unchanged. Description: Inhibition of biotinylated Gbeta1gamma2 (unknown origin) binding to PLCbeta3 at 1 uM incubated for 16 hrs. The assay is classed as protein-complex assay.
Target sequence in this assay (P59768 2-71 partner limits assumed): as the sequence (P59768 2-71 partner limits assumed) above
Target sequence in this assay (P62873 2-340 limits assumed): as the sequence (P62873 2-340 limits assumed) above
Assay [16] relates to HL-60. Description: Binding affinity to Gbetagamma in human HL60 cells assessed as inhibition of fMLP-stimulated GRK2 translocation at 10 uM incubated for 5 mins prior to fMLP stimulation by Western blot analysis. The assay is classed as cell-based.
Assay [17] relates to HL-60. Description: Effect on fMLP-stimulated ERK1/2 phosphorylation in human HL60 cells at 10 uM incubated for 5 mins prior to fMLP stimulation by Western blot analysis. The assay is classed as functional, cell-based.
The target of assay [18] is Delta-type opioid receptor (Homo sapiens) (UniProt P41143). The following applies: CHO, 100 uM.
Delta-type opioid receptor (Homo sapiens), sequence (P41143 whole entry): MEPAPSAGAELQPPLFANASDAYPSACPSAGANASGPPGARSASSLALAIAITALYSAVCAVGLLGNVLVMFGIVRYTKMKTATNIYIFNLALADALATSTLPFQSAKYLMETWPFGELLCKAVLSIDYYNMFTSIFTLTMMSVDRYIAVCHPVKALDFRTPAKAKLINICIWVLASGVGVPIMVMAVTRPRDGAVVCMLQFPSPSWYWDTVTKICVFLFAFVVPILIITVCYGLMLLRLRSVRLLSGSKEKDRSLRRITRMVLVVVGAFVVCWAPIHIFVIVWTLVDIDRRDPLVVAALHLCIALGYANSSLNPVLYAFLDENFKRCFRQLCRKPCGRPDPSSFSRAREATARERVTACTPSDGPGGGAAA
Description: Inhibition of human Gbetagamma-dependent delta opioid receptor-mediated PLC activation expressed in CHO cells assessed as reduction of DPDPE-mediated total inositol phosphate production at 100 uM after 30 mins by scintillation counting analysis in presence of [3H]inositol
Assay [19] has the same target. The following applies: CHO, 100 uM. The source holds these as a separate data set.
Description: Inhibition of human Gbetagamma-dependent delta opioid receptor-mediated PLC activation expressed in CHO cells assessed as reduction of Deltorphin 2-mediated total inositol phosphate production at 100 uM after 30 mins by scintillation counting analysis in presence of [3H]inositol
Assay [20] deals with HL-60. Description: Binding affinity to Gbetagamma in human HL60 cells assessed as inhibition of fMLP-stimulated Ca2+ release at 10 uM incubated for 5 mins prior to fMLP stimulation by Fura2-AM dye-based assay. The assay is classed as cell-based.
In assay [21] the test system is HL-60. Nature of the assay: Binding affinity to Gbetagamma in human HL60 cells assessed as inhibition of fMLP-stimulated GFP-PHAkt translocation to plasma membrane at 10 uM incubated for 5 mins prior to fMLP stimulation by Western blot analysis. The assay is classed as cell-based.
The target in assay [22] is T1, Guanine nucleotide-binding protein G(I)/G(S)/G(T) subunit beta-1/gamma-2. Nature of the assay: Inhibition of biotinylated Gbeta1gamma2 (unknown origin)-mediated PLCbeta2 activation incubated for 16 hrs. The assay is classed as protein-complex assay.
Target sequence in this assay (P59768 2-71 limits assumed): as the sequence (P59768 2-71 partner limits assumed) above
Target sequence in this assay (P62873 2-340 limits assumed): as the sequence (P62873 2-340 limits assumed) above

By IC50 is commonly meant the concentration at which inhibition is half-maximal. The low end stands for higher potency, the high end for lower potency. In the case of `CC1C2C=CC1C(c1c3ccc(=O)cc-3oc3cc(O)ccc13)C2C(=O)O` (configuration not stated), the IC50 in [1] amounted to 14 µM. In other words, the double-digit micromolar range.
On to `O=C1c2ccccc2C(=O)c2c(Nc3cc4c5c(ccc6c7ccc8c9c(cc(Nc%10cccc%11c%10C(=O)c%10ccccc%10C%11=O)c(c3c56)c97)-c3ccccc3C8=O)C(=O)c3ccccc3-4)cccc21`, for which, in assay [2], the IC50 result is reported as “Not Active”.
Consider `O=C(O)C1CCCCC1c1c2ccc(=O)cc-2oc2cc(O)ccc12` (configuration not stated), for which the inhibition entry in the assay with HL-60 [3], with HL-60 [4], in the assay listed under Mus musculus [5] and in the assay listed under Mus musculus [6] was “inactive” in each case.
`Oc1ccc2c3c1O[C@H]1c4[nH]c5c(c4C[C@@]4(O)[C@@H](C2)N(CC2CC2)CC[C@]314)C[C@@]1(O)[C@H]2Cc3ccc(O)c4c3[C@@]1(CCN2CC1CC1)[C@H]5O4`: the inhibition entry with CHO was “inactive”.
As to `O=c1cc2oc3cc(O)c(O)cc3c(-c3ccccc3O)c-2cc1O`, the inhibition entry in assay [7] and in [8] was “inactive” throughout.
In the case of `Cc1c2cc(O)c(=O)cc-2oc2cc(O)c(O)cc12`, the inhibition result in assay [7] and in assay [8] was “inactive” throughout.
For the compound `Cc1c2ccc(=O)cc-2oc2cc(O)ccc12`, the inhibition entry in [7] and in [8] was “inactive” in each case.
With `COC(=O)/C=C/C(=O)N[C@@H]1CC[C@@]2(O)[C@H]3Cc4ccc(O)c5c4[C@@]2(CCN3CC2CC2)[C@H]1O5`, the inhibition entry in [9] and in assay [10] was “Active” throughout.
Consider `COc1ccc2c(c1)c(CC(=O)O)c(C)n2C(=O)c1ccc(Cl)cc1`, for which the inhibition entry in the assay on Mus musculus [11] and in the assay on Mus musculus [12] was “Active” each time. Moreover, the outcome in the assay on Mus musculus [13] was Active.
For the compound `O=C(O)c1ccc(-c2c3ccc(=O)cc-3oc3cc(O)ccc23)cc1`, the inhibition result in [7] and in assay [8] was “inactive” throughout.
For `COc1cc2c(c(OC)c1OC)-c1ccc(O)c(=O)cc1C(N)CC2` (configuration not stated), the inhibition entry in assay [14] and in assay [15] was “inactive” throughout. The inhibition result in the assay on HL-60 [16] was “Active”. The result with HL-60 [17] was inactive.
As for `Oc1ccc2c3c1O[C@H]1c4[nH]c5ccccc5c4C[C@@]4(O)[C@@H](C2)N(CC2CC2)CC[C@]314`, the inhibition result in assay [18] and in assay [19] was “inactive” throughout.
`O=C(O)c1cccc2cccc(-c3c4ccc(=O)c(O)c-4oc4c(O)c(O)ccc34)c12` showed an IC50 in assay [1] of 0.13 µM.
As to `O=C(O)C1CC23C(Cl)C(Cl)C(Cl)C(Cl)C2(CC1c1c2ccc(=O)c(O)c-2oc2c(O)c(O)ccc12)C3(Cl)Cl` (configuration not stated), the inhibition result in the assay on HL-60 [20] and in the assay on HL-60 [21] was “Active” throughout. Further, the result in the assay on HL-60 [17] was inactive.
As to `Ic1ccc2c(c1)N(c1ccccc1)c1cc(Nc3ccc4nc5ccc(I)cc5[n+](-c5ccccc5)c4c3)ccc1N2`, the 50% inhibitory concentration (IC50) entry in [2] and in assay [22] was “Not Active” throughout.
